Measured values published in ChEMBL document CHEMBL1201862, “PubChem BioAssay data set” (2004).
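Results reflect a 48-hour exposure of cells in 96-well plates to compound at five concentrations. Here, GI50 denotes the concentration required for 50% inhibition of growth.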 The source made the active and inactive calls. Cut-off read from the data, not from the text of the source: active = GI50 up to about 1.1 µM and inactive = higher.

How the values were obtained:
Experiment in all cases: DTP human tumour cell line panel, 48 h
[1] = system: MDA-N
[2] = system: DMS-114
[3] = system: DMS-273
[4] = system: M19-MEL
[5] = system: KM-20L2
[6] = system: DLD-1
[7] = system: RXF 631
[8] = system: XF498
[9] = system: HOP-18

In the case of `CC(C)Cn1cnc2c(Sc3c([N+](=O)[O-])ncn3C)nc(N)nc21`, the GI50 [1] is reported as 36.1 µM (inactive), the GI50 [2] is reported as > 100 µM (inactive) and the GI50 [3] is reported as > 100 µM (inactive). For the same compound, the GI50 [4] was > 100 µM (inactive) and the GI50 [5] was > 100 µM (inactive).

In the case of `O=C1C(c2c(O)[nH]c3ccccc23)=Nc2ccc(Br)cc21`, the GI50 [1] is reported as 99.1 µM (inactive).

For `COc1ccc(OC)c2c(/C=C/c3ccc(N(C)C)cc3)ccnc12`, the GI50 [1] was 5.24 µM (inactive).

With `Cc1ccc(/C=C2\Cc3cc(C)c(C)cc3C2=O)c(C(=O)O)c1` the GI50 [1] was 29.6 µM (inactive).

For `O=C1CSC(c2cccc(Oc3ccccc3)c2)N1c1ccc(Cl)cc1` (stereo not given), the GI50 [1] was 19.4 µM (inactive).

In the case of `O=C1[C@H](Cl)[C@H]2c3cc4ccccc4nc3Oc3ccccc3N12`, the GI50 [2] is reported as 20.9 µM (inactive), the GI50 [3] is reported as 33.3 µM (inactive) and the GI50 [6] is reported as 84.9 µM (inactive). The GI50 [4] was 34.8 µM (inactive) and the GI50 [5] was 43.4 µM (inactive).

With `Cc1cccc(C)c1NC(=O)CCCC(=O)C(C#N)c1ccccc1` (stereo not given) the GI50 [7] was > 100 µM (inactive), the GI50 [3] was > 10 µM (inactive) and the GI50 [6] was > 100 µM (inactive). The GI50 [4] was > 100 µM (inactive), the GI50 [8] was > 10 µM (inactive) and the GI50 [5] was > 10 µM (inactive).

For `CC1=C(O)C(=O)C2C(=O)C1C1Cc3ccccc3C21` (stereo not given), the GI50 [7] was > 100 µM (inactive), the GI50 [3] was > 100 µM (inactive) and the GI50 [6] was > 100 µM (inactive). The GI50 [4] was > 100 µM (inactive) and the GI50 [8] was > 100 µM (inactive).

With `CCN(CC)C(=O)C/C(C)=N/NC(=O)c1ccncc1` the GI50 [2] was > 100 µM (inactive), the GI50 [3] was > 100 µM (inactive) and the GI50 [6] was > 100 µM (inactive). The GI50 [8] was > 100 µM (inactive) and the GI50 [5] was > 100 µM (inactive).

`O=C1NC2c3c(I)sc(I)c3/C(=N\O)C2O1` (stereo not given) was tested, and the GI50 [1] was 33.6 µM (inactive).

`OCCOc1ccccc2cccc1-2` was tested, and the GI50 [1] was > 100 µM (inactive).

For `CCN(CCCl)c1cccc(NC(=O)c2ccc(C(=O)Nc3cccc(CN(C)C)c3)cc2)c1`, the GI50 [1] was 0.05 µM (active).

`c1ccc2c(c1)OCCOCCOc1ccccc1OCCO2` was tested, and the GI50 [2] was 84.1 µM (inactive), the GI50 [3] was 41.2 µM (inactive) and the GI50 [6] was 61.9 µM (inactive). The GI50 [4] was 41.9 µM (inactive), the GI50 [9] was 34.2 µM (inactive) and the GI50 [5] was 29.8 µM (inactive).

`COC(=O)C1Cc2c([nH]c3ccccc23)-c2[nH]c3ccccc3c2CC(NC(C)=O)C(=O)NCC(=O)NCC(=O)N1` (stereo not given) was tested, and the GI50 [1] was > 100 µM (inactive).

`CN1c2ccccc2C2c3c(O)ccc(O)c3C=C([N+](=O)[O-])C21` (stereo not given) was tested, and the GI50 [1] was 0.69 µM (active).

With `O=C(O)CCSC1=NCCN1` the GI50 [1] was > 100 µM (inactive).

In the case of `CCN(CC)c1nc(N(C)C)c2ccc(OC)cc2n1`, the GI50 [1] is reported as 8.49 µM (inactive).

With `CCC(/C=C/c1ccccc1)=N\NC(=S)N/N=C(/C=C/c1ccccc1)CC` the GI50 [1] was 58.1 µM (inactive).

`Cc1cc(CS(=O)(=O)/C=C/c2ccccc2[N+](=O)[O-])c(CS(=O)(=O)/C=C/c2ccccc2[N+](=O)[O-])cc1C` was tested, and the GI50 [1] was > 27.9 µM (inactive), the GI50 [2] was 45.1 µM (inactive) and the GI50 [3] was > 100 µM (inactive). The GI50 [4] was > 100 µM (inactive), the GI50 [8] was 15.5 µM (inactive) and the GI50 [5] was > 100 µM (inactive).

`Oc1c(Cl)c(Cl)c(O)c2c1CCCC2` was tested, and the GI50 [1] was 14.3 µM (inactive).

With `CC(=O)Oc1c(C)c(-c2ccccc2)c(C)c(-c2ccccc2)c1C(=S)c1ccccc1` the GI50 [7] was > 100 µM (inactive), the GI50 [6] was > 100 µM (inactive) and the GI50 [4] was > 100 µM (inactive). For the same compound, the GI50 [9] was > 100 µM (inactive) and the GI50 [5] was 67.3 µM (inactive).

In the case of `CCCCC(=C=C(C)CO)C1CCCN1C(=O)OC(C)(C)C` (stereo not given), the GI50 [1] is reported as 17.6 µM (inactive).

`COCC1OC(S(=O)(=O)c2ccccc2)C(O)C(OC)C1OC` (stereo not given) was tested, and the GI50 [1] was > 100 µM (inactive).

In the case of `Cn1c(=O)c2c(nc3n(CCCCl)c(=O)ccn23)n(C)c1=O`, the GI50 [1] is reported as > 100 µM (inactive).

For `O=C(O)c1c2c(c(C(=O)O)c3ccccc13)-c1ccccc1-2`, the GI50 [2] was 74.1 µM (inactive), the GI50 [3] was 49.3 µM (inactive) and the GI50 [6] was 41.4 µM (inactive). For the same compound, the GI50 [4] was 69 µM (inactive), the GI50 [8] was 35.5 µM (inactive) and the GI50 [9] was 20.4 µM (inactive). For the same compound, the GI50 [5] was 42.7 µM (inactive).

With `COc1nc(NC2OCC(OC(C)=O)C(OC(C)=O)C2OC(C)=O)c(-c2csc(N)n2)c(=O)n1C` (stereo not given) the GI50 [2] was > 100 µM (inactive), the GI50 [7] was > 100 µM (inactive) and the GI50 [6] was > 100 µM (inactive). For the same compound, the GI50 [4] was > 100 µM (inactive), the GI50 [9] was > 100 µM (inactive) and the GI50 [5] was > 100 µM (inactive).

In the case of `O=C1C(Cl)=C(N2CCOCC2)C(=O)c2c(O)ccc(O)c21`, the GI50 [1] is reported as 0.176 µM (active).

`COc1c(C)c(C/C=C(\C)CCCCO[Si](c2ccccc2)(c2ccccc2)C(C)(C)C)c(OC)c(OC)c1OC` was tested, and the GI50 [1] was > 46.5 µM (inactive).

In the case of `C=CCC1(O)CC(n2cc(C)c(=O)[nH]c2=O)OC1CO[Si](C)(C)C(C)(C)C` (stereo not given), the GI50 [1] is reported as 51.6 µM (inactive).

For `CC(=O)O[C@H]1CC[C@H]2[C@@H]3CCC4C(C)=NNC(=O)C4[C@H]3CC[C@]12C` (stereo not given in full), the GI50 [1] was > 100 µM (inactive).

In the case of `c1ccc2c(c1)SCCC2NC1=NCCO1` (stereo not given), the GI50 [1] is reported as > 100 µM (inactive).

`CC1=CC(=O)c2c(C=O)c(O)c(O)c(C(C)C)c2C1=O` was tested, and the GI50 [2] was 22.6 µM (inactive), the GI50 [3] was 31 µM (inactive) and the GI50 [6] was 23.9 µM (inactive). For the same compound, the GI50 [4] was 37.9 µM (inactive), the GI50 [8] was 20.6 µM (inactive) and the GI50 [9] was 25.9 µM (inactive). For the same compound, the GI50 [5] was 29.1 µM (inactive).

With `CC(=O)[C@@]1(C)CC2(CCN(C)CC2)OC1C` (stereo not given in full) the GI50 [1] was > 100 µM (inactive).

For `O=C1NC(N2CCOCC2)=N/C1=C\c1ccccc1`, the GI50 [1] was > 100 µM (inactive).

In the case of `Cc1nc(C(=O)O)c2ccccc2n1`, the GI50 [2] is reported as > 100 µM (inactive), the GI50 [3] is reported as > 100 µM (inactive) and the GI50 [6] is reported as > 100 µM (inactive). For the same compound, the GI50 [5] was > 100 µM (inactive).
